# In patent US20100190737A1, “COMPOSITIONS COMPRISING INOSINE AND OROTIC ACID AND METHODS OF USE THEREOF FOR THE TREATMENT OF CERTAIN HEART CONDITIONS AND ENHANCEMENT OF WORK CAPACITY” (NUTRITIONAL RESEARCH GROUP LLC, priority 2009, published 2010):
# Key:
# [1] = test system: patients with arrhythmia; test: Case studies: patients with arrhythmia given inosine/magnesium orotate capsules; assay type: in vivo, human; details: Example 5
# From the text: Another cardiac condition prevalent in the population is arrhythmia. Cardiac arrhythmia is characterized by an abnormal rate of cardiac muscle contractions. The rate of contractions may be too slow, too fast, too frequent or too infrequent. The present pharmaceutical composition stabilizes the cardiac arrhythmia.
# [2] = test system: mice; test: Short term (14 day) work capacity: swimming lengths within 30 minutes, hepatic glycogen; assay type: in vivo, mouse; details: for Swimming lengths / increase in number of swimming lengths: 14 days
# Procedure: Seventy two animals (mice) were divided into 12 groups of 6 animals each; a control group (untreated) and 11 test groups that were intragastrically administered varying daily doses of inosine, potassium orotate or an inosine plus potassium orotate combination (the “combination”) for 14 days. […] The swimming exercise consisted of forcing the animals to perform repetitive swimming in a three meter long channel until exhaustion. The level of exhaustion was determined by a count of the number of swimming lengths which each animal did within 30 minutes. A lower number of swimming lengths indicated a greater level of exhaustion, whereas a higher number of lengths indicated a greater work capacity.
# [3] = test system: rats with experimental aortic stenosis; test: Short term (7 day) experimental aortic stenosis: heart weight and swimming to exhaustion; assay type: in vivo, rat; details: EAS rats; for Heart Weight: intragastric daily
# From the text: There are two 7 day experiments in this portion of the study; a preliminary 7 day study with 54 rats in 9 groups (6 rats per group) to determine optimal dosage levels for the separate inosine or potassium orotate ingredients for farther experimentation by determination of maximal heart weight development and work capacity; and then a study with 30 rats in 5 groups (6 rats per group) using the optimal single ingredient dosage levels for comparison with the results of a composition of the ingredients. All compounds were administered intragastrically through a tube after being dissolved in approximately 1 ml of water.
# A single control group received a sham operation, while the rest of the groups received experimental aortic stenosis (“EAS”) operations (all according to Beznak in Journal Physiol. (Lond.) 120.23P, 1953 as modified by Kogan, Bull eksper. Biol. Med., 26:112, 1961 and then the other 13 groups received various treatments and dosages of inosine or potassium orotate or a composition of the two ingredients after the optimal inosine and potassium orotate dosages were determined. All animals were tested at the beginning and end of the experiment for swimming to exhaustion times with a 7.5% body weight load attached to their tails.
# Sach compound, i.e., inosine and potassium orotate, was administered at different doses and the level of heart hypertrophy and work capacity was observed. Each of the compounds was evaluated in four doses: 12.5 mg/kg, 25 mg/kg, 50 mg/kg and 100 mg/kg body weight. Six animals were used in each group for inosine [4 groups] and potassium orotate [4 groups] plus the one control group (sham operated, no treatment); 54 animals in total.
# Thirty white rats were divided into 5 groups (6 animals in each group). Group I was a sham-operated control group, Group II animals with experimental aortic stenosis but were untreated, Groups III, IV & V animals, all with experimental aortic stenosis received by an intragastric tube each day, either inosine (25 mg/kg body weight), potassium orotate (50 mg/kg body weight) or an composition of inosine (25 mg/kg body weight) plus potassium orotate (50 mg/kg body weight), respectively.
# [4] = test system: white rats; test: Long-term (6 months) work capacity in trained and non-trained rats; details: untrained rats
# Procedure: Seventy two white rats were randomly placed in 6 groups (12 animals each), to test the effectiveness of training and to determine morphological and physiological alterations in the rats. In Group I, control rats were nontrained and not administered either of inosine or the combination of inosine and orotate; Group II comprised non-trained rats to which were administered inosine (25 mg/kg/body weight; Group III comprised non-trained rats to which were administered the combination of inosine plus potassium orotate (25 mg/kg/body weight of inosine and 50 mg/kg/body weight potassium orotate); Group IV comprised trained rats that were not administered either of inosine or the combination of inosine and orotate; Group V comprised trained rats to which was administered inosine alone (25 mg/kg/body weight), and Group VI comprised trained rats to which was administered the combination of inosine plus potassium orotate (25 mg/kg/body weight of inosine and 50 mg/kg/body weight potassium orotate).
# Training of rats consisted of their forced swimming in a water bath (28-30° C.) with a weight fixed on their backs (7.5% of the rat body weight). During the first two weeks the animals swam daily for 5-10 minutes, after which we determined the individual maximum time of swimming to exhaustion (i.e. maximum work capacity) for each animal and then calculated the mean maximum time for each group. After 2 weeks these initial maximum work capacity values were used for planning and performing additional swimming training.
# The functional condition of the rats at rest was estimated from their work capacity (maximum swimming time), body weight increase, EKG tests, oxygen consumption and sodium and potassium levels in the myocardium in a relatively quiet state. The morphological state of the heart and other viscera were rated from their absolute and relative weights, and also from histological and histochemical examinations of the myocardium. Also determined were the amounts of glycogen in the m. quadriceps (quadriceps group of muscles) of the hip, the myocardium and the liver. All the quantitative results obtained were processed with conventional statistical procedures.
# [5] = test system: chinchilla rabbits with experimental myocardial infarction; test: Experimentally-induced myocardial infarction (coronary artery ligation); assay type: in vivo, rabbit; details: for NN of Animals With Necrosis: of 10 animals; for EKG Q: oral 100 mg/kg BW of each ingredient daily
# Procedure: Histological, light microscopic methods of investigation have been employed to study the zone of necrosis, perinecrotic zone and myocardium regions spaced from the time of infarction by 7 and 14 days after the infarction event. Dynamic electrocardiographic observation over the animals was carried out during the first day and during the following 7 and 14 days. The study of the total cross-sectional patterns of a rabbit's heart has made it possible to precisely define these zones. The first Group of 10 animals was sham-operated without treatment (Group I, positive control-Intact, no MI). […] Group II animals were without treatment (negative control-MI Control).
# [6] = seventh day, inosine 25 mg/kg BW, potassium orotate 50 mg/kg BW, alone or together
# [7] = seventh day, inosine 25 mg/kg BW, potassium orotate 50 mg/kg BW, alone or together, listed as orotate
smiles,measurement,setting,value
COCCc1ccc(OCC(O)CNC(C)C)cc1 (centres unmarked) [Toprol],arrhythmia episodes per week,"[1]; 50 mg Toprol daily, one month, from 3-4 times weekly",2-3 per week
O=C([O-])c1cc(=O)[nH]c(=O)[nH]1.[K+] [potassium orotate],Swimming lengths,[2]; 25 mg/kg BW,40.2
same,increase in number of swimming lengths,[2]; 25 mg/kg/body weight daily,60.7%
same,Swimming lengths,[2]; 50 mg/kg BW,45.6
same,increase in number of swimming lengths,[2]; 50 mg/kg/body weight daily,82.2%
same,Swimming lengths,[2]; 100 mg/kg BW,56.3
same,increase in number of swimming lengths,[2]; 100 mg/kg/body weight daily,125%
same,Swimming lengths,[2]; 200 mg/kg BW,44.6
same,increase in number of swimming lengths,[2]; 200 mg/kg/body weight daily,78.3%
same,mean decrease of hepatic glycogen stores during the swimming exercise,[2]; controls 67.5% from baseline,18.5%
same,increased hepatic glycogen content,"[2]; inosine 25 mg/kg, potassium orotate 50 mg/kg, or combination",18%
same,swimming time,"[3]; day 7, 12.5 mg/kg intragastrically, EAS control 15±5.0, sham 62±5.0",18 ± 4.0 min
same,swimming time,"[3]; day 7, 25 mg/kg",22 ± 3.0 min
same,swimming time,"[3]; day 7, 50 mg/kg",32 ± 3.0 min
same,swimming time,"[3]; day 7, 100 mg/kg",30 ± 3.0 min
same,relative heart weight,"[3]; seventh day, 12.5 mg/kg, EAS control 400±8.9, sham 300±5.0",420±6.0 mg/100 g. body weight
same,relative heart weight,"[3]; seventh day, 25 mg/kg",440±11 mg/100 g. body weight
same,relative heart weight,"[3]; seventh day, 50 mg/kg",460±16 mg/100 g. body weight
same,relative heart weight,"[3]; seventh day, 100 mg/kg",465±15 mg/100 g. body weight
same,swimming time,[3]; [6],33 ± 4 min
same,Heart Weight,[3]; [6],460±16 mg/100 gr BW
same,Heart Weight,[3]; [7],460 ± 16 mg/100 gr BW
same,swimming time,[3]; [7],33 ± 4.0 min
same,Heart weight after 6 mo.,[4],304 ± 9.2 mg/100gk BW
same,Oxygen consumption End of experiment,[4],27.0 ± 0.60 ml/min/kg BW
same,Swimming time Before,[4],72 ± 4.0 min
same,"Glycogen in m. quadriceps, After work",[4]; end of experiments,488 ± 15.0
same,"Glycogen in m. quadriceps, In rest",[4]; end of experiments,860 ± 16.0
same,Swimming time After 6 mo.,"[4]; INO 25 mg/kg, PO 50 mg/kg",80 ± 4.2 min
CCC(=O)O[C@@H](O[P@](=O)(CCCCc1ccccc1)CC(=O)N1C[C@H](C2CCCCC2)C[C@H]1C(=O)[O-])C(C)C.[Na+] [Monopril],blood pressure (systolic over diastolic),"[1]; 10 mg Monopril with 50 mg Toprol daily, one month, from 165/105",150/95
same,blood pressure (systolic over diastolic),[1]; Monopril increased to 20 mg,145/90
O=C(O)c1cc(=O)[nH]c(=O)[nH]1 [orotic acid],Thickness of Left Ventricular Wall,[5]; Day 7,5.0 ± 0.61 mm
same,EKG QRS,"[5]; Day 7, 100 mg/kg BW each",0.07 ± 0.003 s
same,EKG R,"[5]; Day 7, 100 mg/kg BW each",4.2 ± 0.030 mm
same,NN of Animals With Necrosis,"[5]; Day 7, MI control 10",5
same,EKG Q,[5]; Day 7,1.0 ± 0.02 mm
same,EKG QRS,[5]; Day 14,0.06 ± 0.016 s
same,EKG R,[5]; Day 14,4.4 ± 0.27 mm
same,Thickness of Left Ventricular Wall,[5]; Day 14,5.4 ± 0.23 mm
same,NN of Animals With Necrosis,"[5]; Day 14, MI control 3",0
same,EKG Q,[5]; Day 14,0.6 ± 0.05 mm
same,reduction in necroses,"[5]; administered individually, 100 mg/kg",50%
same,hemorrhages or infiltration in the infarction zone,[5]; by the fourteenth day,virtually had no hemorrhages or infiltration in the infarction zone
same,restoration of EKG readings,[5]; by the seventh experimental day,nearly a complete restoration of the voltage of EKG waves and of the systolic index
